The target of the experiment is T1, recombinant full length LRRK2 over-expressed in SH-SY5Y cells (Homo sapiens, UniProt Q5S007).
T1 construct: A BacMam virus expressing full length recombinant LRRK2 was purchased from Invitrogen; host or cells: SH-SY5Y human neuroblastoma cells transduced with BacMam LRRK2 virus
As to the kind of experiment: Recombinant cellular LRRK2 AlphaScreen assay (LRRK2 Ser935 phosphorylation). The note with it: SH-SY5Y cells with BacMam LRRK2, 60 minutes compound incubation, read-out: recombinant cellcular LRRK2 alphaScreen assay (pIC50) (converted). It counts as cell-based. As for the experimental part:
Recombinant Cellular LRRK2 AlphaScreen Assay
A BacMam virus expressing full length recombinant LRRK2 was purchased from Invitrogen and amplified by inoculation of SF-9 cells at MOI 0.3 for 4-5 days in Sf-900 III SFM medium supplemented with 3% fetal bovine serum. Infected cell cultures were then centrifuged at 2000 g for 20 minutes, viral supernatant titer determined by anti-gp64 plaque assay and stored at 4° C.
Affinity-purified anti-phospho LRRK2 Ser935 sheep polyclonal antibody (Dzamko et al., 2010, Biochem. J. 430: 405-413) was biotinylated by standard methods (PerkinElmer). Anti-LRRK2 rabbit polyclonal antibody was purchased from Novus Biologicals. AlphaScreen Protein A IgG Kit (including acceptor and donor beads) was purchased from Perkin Elmer.
SH-SY5Y cells were grown in DMEM/F12 medium with 10% dialysed fetal bovine serum and harvested by treatment with 0.5% trypsin-EDTA for 5 minutes at […] followed by centrifugation at 1000 rpm for 4 minutes. The cell pellet was resuspended in Opti-MEM reduced serum media (Invitrogen) at 200,000 cells/ml and mixed with the BacMam LRRK2 virus at MOI=50. 50 μl cell solutions were then dispensed to each well of a 384-well plate and incubated at 37° C., 5% CO2 for 24 hours.
Serial dilutions of test compounds were prepared in Opti-MEM reduced serum media (Invitrogen) and 5.6 ul transferred from compound plate to cell assay plate to achieve a top final assay concentration of 10 uM. DMSO was used in certain wells as controls. Cells were incubated at 37° C., 5% CO2 for 60 minutes. The medium was then removed and cells lysed by addition of 20 ul cell lysis buffer (Cell Signaling Technology) and incubation at 4° C. for 20 minutes. 10 ul of antibody/acceptor bead mix [(1/1000 biotinylated-pS935 LRRK2 antibody, 1/1000 total-LRRK2 antibody, 1/100 Acceptor beads in AlphaScreen detection buffer (25 mM Hepes (pH 7.4), 0.5% Triton X-100, 1 mg/ml Dextran 500 and 0.1% BSA)] was then added to each well and plates incubated for 2 hours at ambient temperature in the dark. 10 μl of donor beads solution (1/33.3 donor beads in AlphaScreen detection buffer) was then added to each well. Following incubation for a further 2 hours at ambient temperature in the dark, plates were read on an EnVision™ plate reader at emission 520-620 nm with excitation 680 nm. Dose response curve data was based on sigmoidal dose-response model.
In general terms: In Alpha technology, singlet oxygen from a donor bead excites a nearby acceptor bead.

Some results are limits rather than exact numbers.

T1 sequence (Q5S007 whole entry): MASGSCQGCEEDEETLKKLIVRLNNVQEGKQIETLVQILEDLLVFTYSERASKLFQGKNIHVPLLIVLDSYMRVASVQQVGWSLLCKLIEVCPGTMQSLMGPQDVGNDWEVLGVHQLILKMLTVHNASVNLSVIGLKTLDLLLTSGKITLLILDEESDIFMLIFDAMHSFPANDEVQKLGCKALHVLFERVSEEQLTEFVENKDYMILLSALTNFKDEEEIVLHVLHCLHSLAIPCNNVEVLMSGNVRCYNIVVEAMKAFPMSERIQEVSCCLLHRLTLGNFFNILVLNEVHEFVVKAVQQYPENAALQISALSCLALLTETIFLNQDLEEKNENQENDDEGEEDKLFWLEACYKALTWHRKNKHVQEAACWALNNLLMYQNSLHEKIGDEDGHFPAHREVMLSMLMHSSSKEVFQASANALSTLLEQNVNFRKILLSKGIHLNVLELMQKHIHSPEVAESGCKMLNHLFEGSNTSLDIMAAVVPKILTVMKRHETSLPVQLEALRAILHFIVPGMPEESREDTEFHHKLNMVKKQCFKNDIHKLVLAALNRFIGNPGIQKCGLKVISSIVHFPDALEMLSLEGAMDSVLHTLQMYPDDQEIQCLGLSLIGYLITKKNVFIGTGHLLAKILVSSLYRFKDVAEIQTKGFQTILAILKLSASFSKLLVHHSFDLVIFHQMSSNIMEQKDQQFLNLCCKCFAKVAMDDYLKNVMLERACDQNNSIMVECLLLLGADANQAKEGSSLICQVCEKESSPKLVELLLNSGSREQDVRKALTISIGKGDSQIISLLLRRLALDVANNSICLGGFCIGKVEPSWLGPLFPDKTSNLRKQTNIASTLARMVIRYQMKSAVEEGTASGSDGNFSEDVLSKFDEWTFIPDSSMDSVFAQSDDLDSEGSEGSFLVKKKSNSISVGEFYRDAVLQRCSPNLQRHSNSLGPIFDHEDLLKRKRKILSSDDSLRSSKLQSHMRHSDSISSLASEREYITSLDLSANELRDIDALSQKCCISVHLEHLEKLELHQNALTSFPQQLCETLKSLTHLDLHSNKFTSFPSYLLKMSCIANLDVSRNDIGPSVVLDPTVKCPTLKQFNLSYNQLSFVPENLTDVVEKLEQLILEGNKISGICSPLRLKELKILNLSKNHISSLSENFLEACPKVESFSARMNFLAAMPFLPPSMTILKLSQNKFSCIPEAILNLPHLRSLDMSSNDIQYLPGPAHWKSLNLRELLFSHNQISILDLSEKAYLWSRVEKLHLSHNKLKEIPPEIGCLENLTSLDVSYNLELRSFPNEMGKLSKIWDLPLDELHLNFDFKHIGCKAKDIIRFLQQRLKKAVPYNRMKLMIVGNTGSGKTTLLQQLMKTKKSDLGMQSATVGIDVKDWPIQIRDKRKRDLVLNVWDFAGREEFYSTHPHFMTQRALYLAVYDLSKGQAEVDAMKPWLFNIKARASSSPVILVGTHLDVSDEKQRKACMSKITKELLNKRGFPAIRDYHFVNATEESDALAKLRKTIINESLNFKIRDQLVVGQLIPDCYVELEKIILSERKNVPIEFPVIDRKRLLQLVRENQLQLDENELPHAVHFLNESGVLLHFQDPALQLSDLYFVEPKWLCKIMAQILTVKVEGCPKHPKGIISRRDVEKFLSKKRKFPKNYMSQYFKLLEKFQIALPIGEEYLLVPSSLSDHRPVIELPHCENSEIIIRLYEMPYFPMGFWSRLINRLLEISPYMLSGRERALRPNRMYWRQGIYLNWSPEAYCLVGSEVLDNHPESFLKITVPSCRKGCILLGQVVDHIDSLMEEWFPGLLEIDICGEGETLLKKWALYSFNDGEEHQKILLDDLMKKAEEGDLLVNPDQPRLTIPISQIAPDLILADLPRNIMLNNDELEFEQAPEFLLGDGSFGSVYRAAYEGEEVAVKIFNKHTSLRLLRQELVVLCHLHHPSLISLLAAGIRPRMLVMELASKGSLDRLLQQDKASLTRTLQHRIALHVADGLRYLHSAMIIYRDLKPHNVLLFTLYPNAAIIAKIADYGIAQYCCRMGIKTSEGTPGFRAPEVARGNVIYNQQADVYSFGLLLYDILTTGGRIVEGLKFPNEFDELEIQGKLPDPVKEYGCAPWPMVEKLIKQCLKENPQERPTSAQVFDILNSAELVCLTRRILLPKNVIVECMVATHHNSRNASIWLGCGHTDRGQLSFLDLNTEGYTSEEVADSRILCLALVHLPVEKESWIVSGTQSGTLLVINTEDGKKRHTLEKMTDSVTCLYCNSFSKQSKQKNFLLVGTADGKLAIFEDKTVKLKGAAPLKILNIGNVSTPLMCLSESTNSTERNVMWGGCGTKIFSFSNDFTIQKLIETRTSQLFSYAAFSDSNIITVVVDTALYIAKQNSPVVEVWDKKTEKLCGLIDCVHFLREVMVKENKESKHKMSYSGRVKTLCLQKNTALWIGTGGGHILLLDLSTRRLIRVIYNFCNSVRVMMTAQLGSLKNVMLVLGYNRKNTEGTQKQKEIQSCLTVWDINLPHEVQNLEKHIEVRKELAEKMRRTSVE

For `CCOc1nc(Nc2ccc(C(=O)N3CCOC[C@H]3C)cc2OC)nc2[nH]ccc12` [Example E30, (R)-(4-((4-ethoxy-7H-pyrrolo[2,3-d]pyrimidin-2-yl)amino)-3-methoxyphenyl)(3-methylmorpholino)methanone], the IC50 was at most 100 nM. With `CCOc1nc(Nc2ccc(C(=O)N3CCN(C)CC3)cc2)nc2[nH]ccc12` [Example E15, (4-((4-ethoxy-7H-pyrrolo-[2,3-d]-pyrimidin-2-yl)amino)phenyl)(4-methylpiperazin-1-yl)methanone] the figure was at most 100 nM; with `CCOc1nc(Nc2ccc(C(=O)N3CCOCC3)cc2OC)nc2[nH]cc(C#N)c12` [Example E59, 4-ethoxy-2-((2-methoxy-4-(morpholine-4-carbonyl)phenyl)amino)-7H-pyrrolo[2,3-d]pyrimidine-5-carbonitrile], at most 100 nM.

Take `COc1cc(C(=O)N2CCN(C)CC2)ccc1Nc1nc(OCC2CC2)c2cc[nH]c2n1` [Example E33, (4-((4-(cyclopropylmethoxy)-7H-pyrrolo-[2,3-d]pyrimidin-2-yl)amino)-3-methoxyphenyl)(4-methylpiperazin-1-yl) methanone]: the IC50 is at most 100 nM. With `COc1cc(C(=O)N2CCOCC2)ccc1Nc1nc(OCC2CC2)c2cc[nH]c2n1` [Example E34, (4-((4-(cyclopropylmethoxy)-7H-pyrrolo-[2,3-d]pyrimidin-2-yl)amino)-3-methoxyphenyl)(morpholino)methanone] the figure was at most 100 nM; with `CCOc1nc(Nc2ccc(C(=O)N3CCOCC3)c(OC)c2)nc2[nH]ccc12` [Example E18, (4-((4-ethoxy-7H-pyrrolo-[2,3-d]-pyrimidin-2-yl)amino)-2-methoxyphenyl)(morpholino)methanone], at most 100 nM.

Regarding `CCOc1nc(Nc2ccc(C(=O)N3CCOCC3)cc2OC)nc2[nH]cc(C)c12` [Example E32, (4-((4-ethoxy-5-methyl-7H-pyrrolo-[2,3-d]pyrimidin-2-yl)amino)-3-methoxyphenyl)(morpholino)methanone], the IC50 is at most 100 nM.
